Results taken from ChEMBL document CHEMBL3885881, “DrugMatrix”.

Species on record: Rattus norvegicus
Test: DrugMatrix - Regimen: Daily Repeat
Format: toxicity, organism-based, Sprague-Dawley
Parameters: regimen Daily Repeat, gender Male, age 6-8 weeks
Conditions: in vivo, iv, vehicle 100 % SALINE; for ABSOLUTE BASOPHIL / ABSOLUTE EOSINOPHIL / ABSOLUTE LYMPHOCYTE / ABSOLUTE MONOCYTE / ABSOLUTE SEGMENTED NEUTROPHIL / BASOPHIL / EOSINOPHIL / ERYTHROCYTE COUNT / HEMATOCRIT / HEMOGLOBIN / LEUKOCYTE COUNT / LYMPHOCYTE / MEAN CORPUSCULAR HEMOGLOBIN / MEAN CORPUSCULAR HEMOGLOBIN CONCENTRATION / MEAN CORPUSCULAR VOLUME / MONOCYTE / NEUTROPHIL / NUCLEATED RED BLOOD CELLS / PLATELET COUNT: tissue Blood; for ALANINE AMINOTRANSFERASE / ALBUMIN / ALKALINE PHOSPHATASE / ASPARTATE AMINOTRANSFERASE / BLOOD UREA NITROGEN / CARBON DIOXIDE / CHLORIDE / CHOLESTEROL / CREATINE PHOSPHOKINASE / CREATININE / GLUCOSE / LACTATE DEHYDROGENASE / LIPASE / PHOSPHORUS / POTASSIUM / SODIUM / TOTAL BILIRUBIN / TOTAL PROTEIN / URIC ACID: tissue Plasma
[1] = 100 mg/kg, 72 h, dose level Low, time 3 day
[2] = 100 mg/kg, 120 h, dose level Low, time 5 day
[3] = 755 mg/kg, 72 h, dose level High, time 3 day
[4] = 755 mg/kg, 120 h, dose level High, time 5 day

O=S(=O)([O-])CCS.[Na+] [MESNA]
ABSOLUTE BASOPHIL [1]: 0 CELLS/uL | ABSOLUTE EOSINOPHIL [1]: 43.67 CELLS/uL | ABSOLUTE LYMPHOCYTE [1]: 13323 CELLS/uL | ABSOLUTE MONOCYTE [1]: 251.67 CELLS/uL | ABSOLUTE SEGMENTED NEUTROPHIL [1]: 848.33 CELLS/uL | BASOPHIL [1]: 0% | EOSINOPHIL [1]: 0.33% | ERYTHROCYTE COUNT [1]: 6 x10E6/uL | HEMATOCRIT [1]: 37.23% | HEMOGLOBIN [1]: 13.77 G/DL | LEUKOCYTE COUNT [1]: 14.47 x10E3/uL | LYMPHOCYTE [1]: 92% | MEAN CORPUSCULAR HEMOGLOBIN [1]: 22.97 pg | MEAN CORPUSCULAR HEMOGLOBIN CONCENTRATION [1]: 36.97 G/DL | MEAN CORPUSCULAR VOLUME [1]: 62.07 fL | MONOCYTE [1]: 1.67% | NEUTROPHIL [1]: 6% | NUCLEATED RED BLOOD CELLS [1]: 0.67 /100WBC | PLATELET COUNT [1]: 1218 x10E3/uL | ALANINE AMINOTRANSFERASE [1]: 53.67 u/L | ALBUMIN [1]: 4.3 G/DL | ALKALINE PHOSPHATASE [1]: 358.33 u/L | ASPARTATE AMINOTRANSFERASE [1]: 87 u/L | BLOOD UREA NITROGEN [1]: 15 mg/dL | CARBON DIOXIDE [1]: 26 mmol/L | CHLORIDE [1]: 102.33 MEQ/L | CHOLESTEROL [1]: 79.33 mg/dL | CREATINE PHOSPHOKINASE [1]: 501.33 u/L | CREATININE [1]: 0.29 mg/dL | GLUCOSE [1]: 159.67 mg/dL | LACTATE DEHYDROGENASE [1]: 166 u/L | LIPASE [1]: 12 u/L | PHOSPHORUS [1]: 12.7 mg/dL | POTASSIUM [1]: 6.86 MEQ/L | SODIUM [1]: 147.77 MEQ/L | TOTAL BILIRUBIN [1]: 0.2 mg/dL | TOTAL PROTEIN [1]: 6.23 G/DL | URIC ACID [1]: 1.63 mg/dL | ABSOLUTE BASOPHIL [2]: 0 CELLS/uL | ABSOLUTE EOSINOPHIL [2]: 120.33 CELLS/uL | ABSOLUTE LYMPHOCYTE [2]: 14708 CELLS/uL | ABSOLUTE MONOCYTE [2]: 625.67 CELLS/uL | ABSOLUTE SEGMENTED NEUTROPHIL [2]: 879.33 CELLS/uL | BASOPHIL [2]: 0% | EOSINOPHIL [2]: 0.67% | ERYTHROCYTE COUNT [2]: 5.55 x10E6/uL | HEMATOCRIT [2]: 36.7% | HEMOGLOBIN [2]: 13.53 G/DL | LEUKOCYTE COUNT [2]: 16.33 x10E3/uL | LYMPHOCYTE [2]: 90.33% | MEAN CORPUSCULAR HEMOGLOBIN [2]: 24.4 pg | MEAN CORPUSCULAR HEMOGLOBIN CONCENTRATION [2]: 36.9 G/DL | MEAN CORPUSCULAR VOLUME [2]: 66.07 fL | MONOCYTE [2]: 3.67% | NEUTROPHIL [2]: 5.33% | NUCLEATED RED BLOOD CELLS [2]: 0 /100WBC | PLATELET COUNT [2]: 1137 x10E3/uL | ALANINE AMINOTRANSFERASE [2]: 56.67 u/L | ALBUMIN [2]: 4.33 G/DL | ALKALINE PHOSPHATASE [2]: 375 u/L | ASPARTATE AMINOTRANSFERASE [2]: 83.67 u/L | BLOOD UREA NITROGEN [2]: 15.33 mg/dL | CARBON DIOXIDE [2]: 22.67 mmol/L | CHLORIDE [2]: 102.67 MEQ/L | CHOLESTEROL [2]: 87.33 mg/dL | CREATINE PHOSPHOKINASE [2]: 282.67 u/L | CREATININE [2]: 0.27 mg/dL | GLUCOSE [2]: 153.67 mg/dL | LACTATE DEHYDROGENASE [2]: 140.67 u/L | LIPASE [2]: 11 u/L | PHOSPHORUS [2]: 11.4 mg/dL | POTASSIUM [2]: 6.06 MEQ/L | SODIUM [2]: 146.67 MEQ/L | TOTAL BILIRUBIN [2]: 0.3 mg/dL | TOTAL PROTEIN [2]: 6.4 G/DL | URIC ACID [2]: 1.07 mg/dL | ABSOLUTE BASOPHIL [3]: 0 CELLS/uL | ABSOLUTE EOSINOPHIL [3]: 65.67 CELLS/uL | ABSOLUTE LYMPHOCYTE [3]: 13484.33 CELLS/uL | ABSOLUTE MONOCYTE [3]: 234.33 CELLS/uL | ABSOLUTE SEGMENTED NEUTROPHIL [3]: 1215.67 CELLS/uL | BASOPHIL [3]: 0% | EOSINOPHIL [3]: 0.33% | ERYTHROCYTE COUNT [3]: 5.37 x10E6/uL | HEMATOCRIT [3]: 34.63% | HEMOGLOBIN [3]: 12.87 G/DL | LEUKOCYTE COUNT [3]: 15 x10E3/uL | LYMPHOCYTE [3]: 90% | MEAN CORPUSCULAR HEMOGLOBIN [3]: 23.93 pg | MEAN CORPUSCULAR HEMOGLOBIN CONCENTRATION [3]: 37.17 G/DL | MEAN CORPUSCULAR VOLUME [3]: 64.43 fL | MONOCYTE [3]: 1.67% | NEUTROPHIL [3]: 8% | NUCLEATED RED BLOOD CELLS [3]: 0 /100WBC | PLATELET COUNT [3]: 960.33 x10E3/uL | ALANINE AMINOTRANSFERASE [3]: 55.33 u/L | ALBUMIN [3]: 4.07 G/DL | ALKALINE PHOSPHATASE [3]: 330.67 u/L | ASPARTATE AMINOTRANSFERASE [3]: 74.33 u/L | BLOOD UREA NITROGEN [3]: 17.33 mg/dL | CARBON DIOXIDE [3]: 25.67 mmol/L | CHLORIDE [3]: 102 MEQ/L | CHOLESTEROL [3]: 76 mg/dL | CREATINE PHOSPHOKINASE [3]: 342.67 u/L | CREATININE [3]: 0.21 mg/dL | GLUCOSE [3]: 165.33 mg/dL | LACTATE DEHYDROGENASE [3]: 152.67 u/L | LIPASE [3]: 9.67 u/L | PHOSPHORUS [3]: 12.4 mg/dL | POTASSIUM [3]: 6.83 MEQ/L | SODIUM [3]: 143.67 MEQ/L | TOTAL BILIRUBIN [3]: 0.13 mg/dL | TOTAL PROTEIN [3]: 6.23 G/DL | URIC ACID [3]: 1.8 mg/dL | ABSOLUTE BASOPHIL [4]: 0 CELLS/uL | ABSOLUTE EOSINOPHIL [4]: 0 CELLS/uL | ABSOLUTE LYMPHOCYTE [4]: 18795 CELLS/uL | ABSOLUTE MONOCYTE [4]: 498.33 CELLS/uL | ABSOLUTE SEGMENTED NEUTROPHIL [4]: 1040 CELLS/uL | BASOPHIL [4]: 0% | EOSINOPHIL [4]: 0% | ERYTHROCYTE COUNT [4]: 5.72 x10E6/uL | HEMATOCRIT [4]: 34.77% | HEMOGLOBIN [4]: 13.27 G/DL | LEUKOCYTE COUNT [4]: 20.33 x10E3/uL | LYMPHOCYTE [4]: 92.33% | MEAN CORPUSCULAR HEMOGLOBIN [4]: 23.2 pg | MEAN CORPUSCULAR HEMOGLOBIN CONCENTRATION [4]: 38.2 G/DL | MEAN CORPUSCULAR VOLUME [4]: 60.87 fL | MONOCYTE [4]: 2.67% | NEUTROPHIL [4]: 5% | NUCLEATED RED BLOOD CELLS [4]: 0 /100WBC | PLATELET COUNT [4]: 1209.33 x10E3/uL | ALANINE AMINOTRANSFERASE [4]: 54.33 u/L | ALBUMIN [4]: 4.23 G/DL | ALKALINE PHOSPHATASE [4]: 290 u/L | ASPARTATE AMINOTRANSFERASE [4]: 83.67 u/L | BLOOD UREA NITROGEN [4]: 19.33 mg/dL | CARBON DIOXIDE [4]: 24.33 mmol/L | CHLORIDE [4]: 105.67 MEQ/L | CHOLESTEROL [4]: 75.33 mg/dL | CREATINE PHOSPHOKINASE [4]: 517 u/L | CREATININE [4]: 0.21 mg/dL | GLUCOSE [4]: 155 mg/dL | LACTATE DEHYDROGENASE [4]: 338.33 u/L | LIPASE [4]: 9.67 u/L | PHOSPHORUS [4]: 12.17 mg/dL | POTASSIUM [4]: 7.45 MEQ/L | SODIUM [4]: 147 MEQ/L | TOTAL BILIRUBIN [4]: 0.17 mg/dL | TOTAL PROTEIN [4]: 6.23 G/DL | URIC ACID [4]: 2.07 mg/dL
